The text below walks through data of patent US20220378756A1, “ACTIVATING PYRUVATE KINASE R” (FORMA Therapeutics, Inc., priority 2019, published 2022).

The structures appear in SMILES notation.

For data set [1], the system named is H295R adreno-cortical carcinoma cell line. Kind of data set: Steroid modulation screen in vitro. The format is cell-based. Particulars: tested at 200 to 0.0002 μM; only at the top concentration. Here is the method: To assess potential effects on steroidogenesis, Compound 1 was screened for steroid modulation in vitro using the H295R adreno-cortical carcinoma cell line (at 200 to 0.0002 μM) and in an assay to monitor cell viability (MTT Kit). Compound 1 indicated steroid modulation potential (% over vehicle) only at 200 µM, the top concentration tested, with 100% cellular viability at concentrations ≤20 μM (90% viability at 200 μM).

The subject of data set [2] is 2,3-DPG and ATP levels in whole blood. The data set can be described thus: PK/PD studies in wild type mice, QDx7 oral gavage. The format is in vivo, Balb/c mice. The procedure:
Two pharmacokinetic (PK)/pharmacodynamic (PD) studies were conducted in Balb/c mice that were administered Compound 1 once daily by oral gavage (formulated in 10% Cremophor EL/10% PG/80% DI water) for 7 days (QD×7) at doses of 0 (vehicle), 3.75, 7.5, 15, 30, 60 mg/kg (Study 1); 0 (vehicle), 7.5, 15, 30, 60, 120, or 240 mg/kg (Study 2). On the 7th day, whole blood was collected 24 hours after dosing and snap frozen. Samples were later thawed and analyzed by LC/MS for 2,3-DPG and ATP levels.

Data set [3] can be described thus: Phase 1, SCD patients single 700 mg dose: safety. The format is in vivo, human. The procedure: (§1) In this study, SAD/MAD cohorts are randomized (3 to 1) to receive Compound 1 or placebo (P). Compound 1 was evaluated first in 4 healthy SAD cohorts and 4 healthy MAD (14-day dosing period) cohorts. Based on the safety, and PK/PD profile from HS, Compound 1 is then evaluated in 1 SCD SAD cohort and 2 SCD MAD cohorts. Specifically, based on the safety and pharmacokinetic/pharmacodynamics (PK/PD) profile in healthy volunteer studies, Compound 1 is evaluated in patients (pts) with SCD, first in a single dose (SD or SAD) cohort and then in multiple-dose (MD or MAD) cohorts (14-day and 12-week). Safety assessments include AEs, vital signs, ECGs and laboratory parameters. PK/PD blood sampling was performed on Day 1 (SAD/MAD) and Day 14 (MAD) and up to 72 h after the last dose and at the end-of-study visit. PD parameters included 2,3-DPG, ATP, and p50 in all cohorts with additional PD studies (including oxygen scan) performed only in the SCD cohorts. PD parameters included 2,3-DPG, ATP, p50, RBC deformability with controlled deoxygenation and reoxygenation (Lorrca® oxygen scan) and varying osmolality (Lorrca® osmoscan)). To maintain study blind, pt identifiers were removed when needed.
In the SD cohort, 7 pts (2 males, 5 females, all HbSS) received 700 mg Compound 1 (n=5) or placebo (n=2).
All SCD patients who received a single 700 mg dose of Compound 1 or placebo were monitored for adverse events for 7 days. The incidence of treatment emergent adverse events (TEAEs) in SCD patients receiving Compound 1 (700 mg) or placebo are reported in Table 23. Six TEAEs were reported in 4 patients; all TEAEs were grade 1 and transient. Specifically, six TEAEs were reported in 4 of 7 ([…]) patients, including 3 TEAEs (arthralgia, headache, palpitations) in 2 of 5 ([…]) pts receiving Compound 1 and 3 TEAEs (back pain, myalgia, pruritis) in 2 of 2 (100%) pts receiving placebo; all TEAEs were grade 1 and transient. […] One possibly related TEAE (palpitations) occurred about 8 hours post dose. No other symptoms were observed, and the palpitations resolved in <1 minute. […] The single 700 mg dose of Compound 1 was considered tolerable, and the first multiple dose SCD cohort (“Dose 1” in FIG. 28) was initiated.

For data set [4], the system named is 2,3-DPG, ATP, p50, deformability of sickle RBCs. Kind of data set: Phase 1, SCD patients single 700 mg dose: pharmacodynamics. Format: in vivo, human. Here is the method:
as §1
A potential exposure to the maximum PD response dose range to evaluate in patients with SCD was identified. Based on the safety and PK/PD profile in healthy volunteer studies, a 700 mg single dose was evaluated in patients with SCD (n=7). A single 700 mg dose of Compound 1 was selected to evaluate in patients with SCD to enable daily dosing cohorts at lower exposures.
The effects of a single dose of Compound 1 (700 mg) versus placebo on oxygen scan, oxygen affinity (p50), and osmoscan in SCD patients were evaluated. At the Point of Sickling (POS or PoS), polymerization of de-oxy HbS can affect the deformability of the RBCs and the elongation Index starts to decrease. The EImin refers to the lowest level of RBC deformability in the Oxygenscan. The lower the EImin the lower the deformability of the RBC. […] As shown in FIG. 53 and Table 25 (Oxygen affinity curve), Compound 1 increased O2 affinity (decreased p50) in all participants treated. […] These effects were transient, returning to baseline 3 to 7 days after the single dose of Compound 1.
The oxygen affinity of RBCs was measured in patient blood using a Hemox Analyzer (TCS Scientific Corp.), an automatic system for the recording of blood oxygen equilibrium curves and related phenomena. The Hemox Analyzer was used according to standard methods to determine the hemoglobin-oxygen dissociation curves for whole blood samples, numerically characterized by the p50, the partial pressure of oxygen at which hemoglobin is 50% saturated. […] In the case of hemoglobin, the wavelength of maximum absorbance is the measuring wavelength (560 nm), while the reference wavelength is at the isosbestic point at (570 nm). The absorbance at the isosbestic point remains unchanged during the deoxygenation process of the hemoglobin, however the measuring wavelength (560 nm) undergoes a drastic change in absorbance. This change is detected by the electronic circuitry and is plotted as the log/ratio change between the two wavelengths. The log/ratio measurement at 560 nm and 570 nm is utilized to measure the optical absorbance change during the deoxygenation of the hemoglobin. Simultaneously with the measurement of the hemoglobin absorbance, the oxygen concentration is directly measured in the sample using a Clark electrode. […]

[5] abbreviates: SCD patients, 24 hours after single 700-mg dose.

In data set [1], `O=C([C@H](CO)c1ccccc1)N1CC2=C(C1)CN(S(=O)(=O)c1cnc3c(c1)OCCO3)C2` (single isomer, unassigned) [Compound 1] came in with a concentration at which steroid modulation potential (% over vehicle) was indicated of 200 µM. Moreover, the “reduction of 2,3-DPG levels in blood” value is recorded as over 30% in data set [2] (120 and 240 mg/kg (≥120 mg/kg) QDx7 oral); over 20% in data set [2] (≥15 mg/kg QDx7 oral, 24 h after dosing on day 7). Moreover, the “ATP increase compared to vehicle” value in data set [2] (Study 1, 30 mg/kg QDx7 oral) is listed as 21%; in data set [2] (Study 1, 60 mg/kg QDx7 oral), 79%. Besides, the ATP increase is recorded as 45% in data set [2] (Study 2, 240 mg/kg QDx7 oral (highest dose)) and over 40% in data set [2] (≥60 mg/kg). Moreover, the “maximum ATP increase compared to vehicle” value in data set [2] (Study 2, doses up to 120 mg/kg QDx7 oral) is reported as about 110%. Besides, the tolerability entry in data set [2] (both studies, up to 240 mg/kg QDx7, no adverse clinical signs, no body weight difference) is given as “well tolerated”. For the same molecule, the “serious adverse events / TEAEs leading to withdrawal” value in data set [3] (SCD single dose cohort) is “No serious adverse events (SAEs) or TEAEs leading to pt withdrawal”. Further, in data set [3] (SCD, 700 mg single dose, N = 5), the “Any TEAE, n (%)” value is recorded as 2 (40) n (%). Moreover, the “TEAE related to study drug, n (%)” value in data set [3] (SCD, 700 mg single dose, N = 5) is on record as 1 (20) n (%). For the same molecule, the pts with TEAEs (2 of 5) in data set [3] (SCD, 700 mg single dose, 3 TEAEs (arthralgia, headache, palpitations), grade 1) is 40%. The “decrease of 2,3-DPG blood concentrations” value in data set [4] (setting [5]) is listed as 26%. Moreover, the “increase of ATP blood concentrations” value in data set [4] (setting [5]) turned out to be 30%. In addition, the “Hb increase compared with placebo” value in data set [4] (SCD, 24 h after a single dose) was about 0.9 g/dL. Moreover, the “POS (Oxygenscan), post-dose (24 hours)” value in data set [4] (SCD, single 700 mg, median (range), pre-dose 35.4 (27.3, 38.8)) is 24.0 (17.9, 31.8). In data set [4] (SCD, single 700 mg, median (range), pre-dose 380 (371, 399)), the “Ohyper (Osmoscan), post-dose (24 hours)” value is reported as 400 (371, 412).
